Measured values published in PubChem BioAssay (NCI).
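Following 48 hours of exposure in 96-well plates, responses at five concentrations were used to interpolate endpoints linearly. TGI is the concentration that stops growth completely.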

Experiments:
Assay in all cases: NCI anticancer screen, dose series, 48 h
SF-268 CNS = system: SF-268 CNS
LOX IMVI melanoma = system: LOX IMVI melanoma
EKVX NSCLC = system: EKVX NSCLC
SF-539 CNS = system: SF-539 CNS
K-562 leukemia = system: K-562 leukemia
HOP-62 NSCLC = system: HOP-62 NSCLC
SNB-19 CNS = system: SNB-19 CNS
TK-10 renal = system: TK-10 renal
UACC-62 melanoma = system: UACC-62 melanoma
NCI-H23 lung = system: NCI-H23 lung
M19-MEL melanoma = system: M19-MEL melanoma
DLD-1 colon = system: DLD-1 colon
HL-60(TB) leukemia = system: HL-60(TB) leukemia
CAKI-1 renal = system: CAKI-1 renal
M14 melanoma = system: M14 melanoma
U251 CNS = system: U251 CNS
DMS 273 small cell lung = system: DMS 273 small cell lung
NCI-H226 lung = system: NCI-H226 lung
HOP-92 NSCLC = system: HOP-92 NSCLC
SR leukemia = system: SR leukemia
CCRF-CEM leukemia = system: CCRF-CEM leukemia
A549 NSCLC = system: A549 NSCLC
NCI-H460 lung = system: NCI-H460 lung
OVCAR-4 ovarian = system: OVCAR-4 ovarian
OVCAR-3 ovarian = system: OVCAR-3 ovarian
ACHN renal = system: ACHN renal
SK-MEL-28 melanoma = system: SK-MEL-28 melanoma
NCI-H522 lung = system: NCI-H522 lung
HT29 colon = system: HT29 colon
MOLT-4 leukemia = system: MOLT-4 leukemia
HCT-116 colon = system: HCT-116 colon
XF 498 CNS = system: XF 498 CNS
HCT-15 colon = system: HCT-15 colon
SNB-75 CNS = system: SNB-75 CNS
IGROV1 ovarian = system: IGROV1 ovarian
OVCAR-8 ovarian = system: OVCAR-8 ovarian
MALME-3M melanoma = system: MALME-3M melanoma
HCC-2998 colon = system: HCC-2998 colon
SF-295 CNS = system: SF-295 CNS
SNB-78 CNS = system: SNB-78 CNS
SN12C renal = system: SN12C renal
SK-MEL-5 melanoma = system: SK-MEL-5 melanoma
A498 renal = system: A498 renal
LXFL 529 NSCLC = system: LXFL 529 NSCLC
RXF 393 renal = system: RXF 393 renal
SW-620 colon = system: SW-620 colon
UACC-257 melanoma = system: UACC-257 melanoma
SK-OV-3 ovarian = system: SK-OV-3 ovarian
KM20L2 colon = system: KM20L2 colon
DMS 114 small cell lung = system: DMS 114 small cell lung
UO-31 renal = system: UO-31 renal
786-0 renal = system: 786-0 renal
COLO 205 colon = system: COLO 205 colon
RPMI-8226 leukemia = system: RPMI-8226 leukemia
SK-MEL-2 melanoma = system: SK-MEL-2 melanoma
OVCAR-5 ovarian = system: OVCAR-5 ovarian
HOP-18 NSCLC = system: HOP-18 NSCLC
KM12 colon = system: KM12 colon
RXF-631 renal = system: RXF-631 renal

Structure (SMILES): O=C(/C=C1/Nc2ccc([N+](=O)[O-])cc2NC1O)c1cccc([N+](=O)[O-])c1 (stereo not drawn)
- TGI (SF-268 CNS): > 100 µM
- TGI (LOX IMVI melanoma): > 100 µM
- TGI (EKVX NSCLC): > 100 µM
- TGI (SF-539 CNS): 87.2 µM
- TGI (K-562 leukemia): > 100 µM
- TGI (HOP-62 NSCLC): > 100 µM
- TGI (SNB-19 CNS): > 100 µM
- TGI (TK-10 renal): 88.4 µM
- TGI (UACC-62 melanoma): > 100 µM
- TGI (NCI-H23 lung): > 100 µM
- TGI (M19-MEL melanoma): > 100 µM
- TGI (DLD-1 colon): > 100 µM
- TGI (HL-60(TB) leukemia): > 100 µM
- TGI (CAKI-1 renal): > 100 µM
- TGI (M14 melanoma): > 100 µM
- TGI (U251 CNS): > 100 µM
- TGI (DMS 273 small cell lung): > 100 µM
- TGI (NCI-H226 lung): > 100 µM
- TGI (HOP-92 NSCLC): > 100 µM
- TGI (SR leukemia): > 100 µM
- TGI (CCRF-CEM leukemia): > 100 µM
- TGI (A549 NSCLC): > 100 µM
- TGI (NCI-H460 lung): > 100 µM
- TGI (OVCAR-4 ovarian): 11.1 µM
- TGI (OVCAR-3 ovarian): > 100 µM
- TGI (ACHN renal): > 100 µM
- TGI (SK-MEL-28 melanoma): > 100 µM
- TGI (NCI-H522 lung): > 100 µM
- TGI (HT29 colon): > 100 µM
- TGI (MOLT-4 leukemia): > 100 µM
- TGI (HCT-116 colon): > 100 µM
- TGI (XF 498 CNS): > 100 µM
- TGI (HCT-15 colon): > 100 µM
- TGI (SNB-75 CNS): > 100 µM
- TGI (IGROV1 ovarian): > 100 µM
- TGI (OVCAR-8 ovarian): 48.7 µM
- TGI (MALME-3M melanoma): > 100 µM
- TGI (HCC-2998 colon): > 100 µM
- TGI (SF-295 CNS): 38.3 µM
- TGI (SNB-78 CNS): > 100 µM
- TGI (SN12C renal): > 100 µM
- TGI (SK-MEL-5 melanoma): > 100 µM
- TGI (A498 renal): > 100 µM
- TGI (LXFL 529 NSCLC): > 100 µM
- TGI (RXF 393 renal): 65.4 µM
- TGI (SW-620 colon): > 100 µM
- TGI (UACC-257 melanoma): > 100 µM
- TGI (SK-OV-3 ovarian): 57.2 µM
- TGI (KM20L2 colon): 96.2 µM
- TGI (DMS 114 small cell lung): > 100 µM
- TGI (UO-31 renal): > 100 µM
- TGI (786-0 renal): 47.8 µM
- TGI (COLO 205 colon): > 100 µM

Structure (SMILES): Cc1ccc(S(=O)(=O)c2c(N)n(CCN(C)C)c3nc4ccccc4nc23)cc1
- TGI (SF-268 CNS): > 100 µM
- TGI (EKVX NSCLC): > 100 µM
- TGI (SF-539 CNS): > 100 µM
- TGI (K-562 leukemia): > 100 µM
- TGI (SNB-19 CNS): > 100 µM
- TGI (RPMI-8226 leukemia): > 100 µM
- TGI (TK-10 renal): > 100 µM
- TGI (NCI-H23 lung): > 100 µM
- TGI (M19-MEL melanoma): > 100 µM
- TGI (DLD-1 colon): > 100 µM
- TGI (HL-60(TB) leukemia): > 100 µM
- TGI (M14 melanoma): > 100 µM
- TGI (U251 CNS): > 100 µM
- TGI (DMS 273 small cell lung): > 100 µM
- TGI (NCI-H226 lung): > 100 µM
- TGI (HOP-92 NSCLC): > 100 µM
- TGI (CCRF-CEM leukemia): > 100 µM
- TGI (A549 NSCLC): > 100 µM
- TGI (NCI-H460 lung): > 100 µM
- TGI (SK-MEL-2 melanoma): > 100 µM
- TGI (OVCAR-5 ovarian): > 100 µM
- TGI (OVCAR-4 ovarian): > 100 µM
- TGI (OVCAR-3 ovarian): > 100 µM
- TGI (ACHN renal): > 100 µM
- TGI (SK-MEL-28 melanoma): > 100 µM
- TGI (NCI-H522 lung): 58.7 µM
- TGI (HT29 colon): > 100 µM
- TGI (MOLT-4 leukemia): > 100 µM
- TGI (HCT-116 colon): > 100 µM
- TGI (XF 498 CNS): > 100 µM
- TGI (HCT-15 colon): > 100 µM
- TGI (SNB-75 CNS): > 100 µM
- TGI (IGROV1 ovarian): > 100 µM
- TGI (OVCAR-8 ovarian): > 100 µM
- TGI (MALME-3M melanoma): > 100 µM
- TGI (HCC-2998 colon): > 100 µM
- TGI (SF-295 CNS): > 100 µM
- TGI (SNB-78 CNS): > 100 µM
- TGI (HOP-18 NSCLC): > 100 µM
- TGI (SN12C renal): > 100 µM
- TGI (SK-MEL-5 melanoma): > 100 µM
- TGI (LXFL 529 NSCLC): > 100 µM
- TGI (UACC-257 melanoma): > 100 µM
- TGI (SK-OV-3 ovarian): > 100 µM
- TGI (KM12 colon): > 100 µM
- TGI (DMS 114 small cell lung): > 100 µM
- TGI (UO-31 renal): > 100 µM
- TGI (786-0 renal): > 100 µM
- TGI (COLO 205 colon): > 100 µM

Structure (SMILES): C=C(Cl)Cc1c(O)c2c(c(O)c1CC(=C)Cl)C(=O)c1ccccc1C2=O
- TGI (LOX IMVI melanoma): > 100 µM
- TGI (EKVX NSCLC): > 100 µM
- TGI (K-562 leukemia): > 100 µM
- TGI (HOP-62 NSCLC): > 100 µM
- TGI (RPMI-8226 leukemia): > 100 µM
- TGI (TK-10 renal): > 100 µM
- TGI (UACC-62 melanoma): > 100 µM
- TGI (DLD-1 colon): > 100 µM
- TGI (HL-60(TB) leukemia): > 100 µM
- TGI (CAKI-1 renal): > 100 µM
- TGI (M14 melanoma): > 100 µM
- TGI (U251 CNS): > 100 µM
- TGI (DMS 273 small cell lung): > 100 µM
- TGI (SR leukemia): > 100 µM
- TGI (CCRF-CEM leukemia): > 100 µM
- TGI (A549 NSCLC): > 100 µM
- TGI (SK-MEL-2 melanoma): > 100 µM
- TGI (OVCAR-5 ovarian): > 100 µM
- TGI (OVCAR-4 ovarian): > 100 µM
- TGI (ACHN renal): > 100 µM
- TGI (MOLT-4 leukemia): > 100 µM
- TGI (XF 498 CNS): > 100 µM
- TGI (HCT-15 colon): > 100 µM
- TGI (IGROV1 ovarian): > 100 µM
- TGI (OVCAR-8 ovarian): > 100 µM
- TGI (MALME-3M melanoma): > 100 µM
- TGI (HCC-2998 colon): > 100 µM
- TGI (SN12C renal): > 100 µM
- TGI (SK-MEL-5 melanoma): > 100 µM
- TGI (LXFL 529 NSCLC): > 100 µM
- TGI (SW-620 colon): > 100 µM
- TGI (SK-OV-3 ovarian): > 100 µM
- TGI (KM20L2 colon): > 100 µM
- TGI (DMS 114 small cell lung): > 100 µM
- TGI (786-0 renal): > 100 µM
- TGI (COLO 205 colon): > 100 µM

Structure (SMILES): c1ccc2c(c1)C1=NCCN1c1ccccc1-2
- TGI (SF-268 CNS): 11 µM
- TGI (LOX IMVI melanoma): 10.4 µM
- TGI (EKVX NSCLC): 35.5 µM
- TGI (SF-539 CNS): 9.69 µM
- TGI (HOP-62 NSCLC): 13.3 µM
- TGI (SNB-19 CNS): 16.2 µM
- TGI (RPMI-8226 leukemia): 6.97 µM
- TGI (TK-10 renal): 12 µM
- TGI (UACC-62 melanoma): 13 µM
- TGI (NCI-H23 lung): 6.65 µM
- TGI (M19-MEL melanoma): 11 µM
- TGI (DLD-1 colon): 9.02 µM
- TGI (HL-60(TB) leukemia): 5.17 µM
- TGI (CAKI-1 renal): 9.05 µM
- TGI (M14 melanoma): 13.3 µM
- TGI (U251 CNS): 14 µM
- TGI (DMS 273 small cell lung): 4.88 µM
- TGI (HOP-92 NSCLC): 21.7 µM
- TGI (SR leukemia): 2.41 µM
- TGI (CCRF-CEM leukemia): 5.98 µM
- TGI (A549 NSCLC): 27.1 µM
- TGI (NCI-H460 lung): 4 µM
- TGI (SK-MEL-2 melanoma): 8.05 µM
- TGI (OVCAR-5 ovarian): 15.2 µM
- TGI (OVCAR-4 ovarian): 10.2 µM
- TGI (OVCAR-3 ovarian): 6.82 µM
- TGI (ACHN renal): 7.36 µM
- TGI (SK-MEL-28 melanoma): 15.2 µM
- TGI (NCI-H522 lung): 3.13 µM
- TGI (HT29 colon): 7.85 µM
- TGI (MOLT-4 leukemia): 8.99 µM
- TGI (HCT-116 colon): 10.4 µM
- TGI (HCT-15 colon): 12.2 µM
- TGI (SNB-75 CNS): 14.4 µM
- TGI (IGROV1 ovarian): 17.2 µM
- TGI (OVCAR-8 ovarian): 11.5 µM
- TGI (MALME-3M melanoma): 6.77 µM
- TGI (HCC-2998 colon): 18.8 µM
- TGI (SF-295 CNS): 31.4 µM
- TGI (SNB-78 CNS): 18 µM
- TGI (HOP-18 NSCLC): 9.19 µM
- TGI (SN12C renal): 9.92 µM
- TGI (SK-MEL-5 melanoma): 6.08 µM
- TGI (A498 renal): 8.82 µM
- TGI (LXFL 529 NSCLC): 13 µM
- TGI (RXF 393 renal): 6.14 µM
- TGI (SW-620 colon): 11.6 µM
- TGI (UACC-257 melanoma): 7.71 µM
- TGI (SK-OV-3 ovarian): 29.9 µM
- TGI (KM20L2 colon): 14.2 µM
- TGI (KM12 colon): 14.6 µM
- TGI (UO-31 renal): 18.4 µM
- TGI (786-0 renal): 10 µM
- TGI (RXF-631 renal): 9.69 µM
- TGI (COLO 205 colon): 2.77 µM
